In patent publication US6358885B1, “Substituted phenylheterocyclic herbicides” (Mississippi State University, priority 1992, dated 2002):

Experiments:
barley [1] = experiment: Test B preemergence/postemergence greenhouse plant response rating 0 to 10; format: in vivo, Hordeum vulgare; settings: 0 to 10 scale
Method in brief: (§1)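 Test chemicals, dissolved in a non-phytotoxic solvent, were applied to soil at planting and, at the same time, over foliage of seedlings at the one to four leaf stage.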

bedstraw = experiment: as above; format: in vivo, Galium aparine; settings: 0 to 10 scale
Method in brief: as §1

chickweed [2] = experiment: as above; format: in vivo, Stellaria media; settings: 0 to 10 scale
Method in brief: as §1

cocklebur = experiment: as above; format: in vivo, Xanthium pensylvanicum; settings: 0 to 10 scale
Method in brief: as §1

morningglory = experiment: as above; format: in vivo, Ipomoea hederacea; settings: 0 to 10 scale
Method in brief: as §1

sorghum = experiment: as above; format: in vivo, Sorghum bicolor; settings: 0 to 10 scale
Method in brief: as §1

soybean [3] = experiment: as above; format: in vivo, Glycine max; settings: 0 to 10 scale
Method in brief: as §1

sugar beet = experiment: as above; format: in vivo, Beta vulgaris; settings: 0 to 10 scale
Method in brief: as §1

velvetleaf = experiment: as above; format: in vivo, Abutilon theophrasti; settings: 0 to 10 scale
Method in brief: as §1

wild buckwheat = experiment: as above; format: in vivo, Polygonum convolvulus; settings: 0 to 10 scale
Method in brief: as §1

barley [4] = experiment: Test C preemergence/postemergence greenhouse plant response rating 0 to 100; format: in vivo, Hordeum vulgare; settings: POSTEMERGENCE
Method in brief: (§2)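 Compounds in non-phytotoxic solvent applied preemergence to sandy loam one day after planting, postemergence at the 1–4 leaf stage, or to ~2.5 cm floodwater over silt loam.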

blackgrass = experiment: as above; format: in vivo, Alopecurus myosuroides; settings: POSTEMERGENCE
Method in brief: as §2

chickweed [5] = experiment: as above; format: in vivo, Stellaria media; settings: POSTEMERGENCE
Method in brief: as §2

pigweed = experiment: as above; format: in vivo, Amaranthusretroflexus; settings: POSTEMERGENCE
Method in brief: as §2

rape = experiment: as above; format: in vivo, Brassica napus; settings: POSTEMERGENCE
Method in brief: as §2

ryegrass = experiment: as above; format: in vivo, Lolium multiflorum; settings: POSTEMERGENCE
Method in brief: as §2

soybean [6] = experiment: as above; format: in vivo, Glycine max; settings: POSTEMERGENCE
Method in brief: as §2

umbrella sedge = experiment: Test C flood test plant response rating 0 to 100; format: in vivo, Cyperus difformis
Method in brief: as §2

COCN1C(=O)COc2cc(F)c(-c3nn4c(c3Br)CCCC4)cc21 [Compound 67]
1: Plant response rating, Velvetleaf (velvetleaf; PREEMERGENCE, Rate 50 g/ha)
95: Plant response rating (0 to 100), Chickweed (chickweed [5]; Rate 16 g/ha) | Plant response rating, Soybean (soybean [6]; 62 g/ha, 0 to 100 scale)
7: Plant response rating, Chickweed (chickweed [2]; POSTEMERGENCE, Rate 10 g/ha)
5: Plant response rating, Sorghum (sorghum; POSTEMERGENCE, Rate 10 g/ha)
4: Plant response rating, Barley (barley [1]; POSTEMERGENCE, Rate 10 g/ha)
60: Plant response rating, Blackgrass (blackgrass; 62 g/ha, 0 to 100 scale) | Plant response rating Ryegrass (ryegrass; 62 g/ha, 0 to 100 scale)
10: Plant response rating, Bedstraw (bedstraw; POSTEMERGENCE, Rate 50 g/ha) | Plant response rating, Morningglory (morningglory; POSTEMERGENCE, Rate 10 g/ha) | Plant response rating, Morningglory (morningglory; POSTEMERGENCE, Rate 50 g/ha) | Plant response rating, Sugar beet (sugar beet; POSTEMERGENCE, Rate 10 g/ha) | Plant response rating, Sugar beet (sugar beet; POSTEMERGENCE, Rate 50 g/ha) | Plant response rating, Velvetleaf (velvetleaf; POSTEMERGENCE, Rate 50 g/ha) | Plant response rating, Wild buckwheat (wild buckwheat; POSTEMERGENCE, Rate 10 g/ha) | Plant response rating, Wild buckwheat (wild buckwheat; POSTEMERGENCE, Rate 50 g/ha) | Plant response rating, Wild buckwheat (wild buckwheat; PREEMERGENCE, Rate 50 g/ha)
90: Plant response rating (0 to 100), Rape (rape; Rate 16 g/ha)
40: Plant response rating (0 to 100), Blackgrass (blackgrass; Rate 4 g/ha) | Plant response rating (0 to 100), Ryegrass (ryegrass; Rate 4 g/ha)
100: Plant response rating, Chickweed (chickweed [5]; 62 g/ha, 0 to 100 scale) | Plant response rating Pigweed (pigweed; 62 g/ha, 0 to 100 scale) | Plant response rating (0 to 100), Pigweed (pigweed; Rate 16 g/ha) | Plant response rating, Rape (rape; 62 g/ha, 0 to 100 scale)
70: Plant response rating (0 to 100), Chickweed (chickweed [5]; Rate 1 g/ha) | Plant response rating (0 to 100), Chickweed (chickweed [5]; Rate 4 g/ha) | Plant response rating (0 to 100), Pigweed (pigweed; Rate 4 g/ha) | Plant response rating (0 to 100), Rape (rape; Rate 1 g/ha) | Plant response rating (0 to 100), Rape (rape; Rate 4 g/ha) | Plant response rating Umbrella sedge (umbrella sedge; flood test species listed under POSTEMERGENCE, 62 g/ha, 0 to 100 scale)
9: Plant response rating, Chickweed (chickweed [2]; POSTEMERGENCE, Rate 50 g/ha) | Plant response rating, Cocklebur (cocklebur; POSTEMERGENCE, Rate 50 g/ha) | Plant response rating, Soybean (soybean [3]; POSTEMERGENCE, Rate 50 g/ha) | Plant response rating, Sugar beet (sugar beet; PREEMERGENCE, Rate 50 g/ha) | Plant response rating, Velvetleaf (velvetleaf; POSTEMERGENCE, Rate 10 g/ha)
0: Plant response rating, Barley (barley [1]; PREEMERGENCE, Rate 10 g/ha) | Plant response rating, Bedstraw (bedstraw; PREEMERGENCE, Rate 10 g/ha) | Plant response rating, Chickweed (chickweed [2]; PREEMERGENCE, Rate 10 g/ha) | Plant response rating, Cocklebur (cocklebur; PREEMERGENCE, Rate 10 g/ha) | Plant response rating, Cocklebur (cocklebur; PREEMERGENCE, Rate 50 g/ha) | Plant response rating, Soybean (soybean [3]; PREEMERGENCE, Rate 50 g/ha) | Plant response rating (0 to 100), Umbrella sedge (umbrella sedge; POSTEMERGENCE section, flood test, Rate 1 g/ha) | Plant response rating (0 to 100), Umbrella sedge (umbrella sedge; POSTEMERGENCE section, flood test, Rate 4 g/ha)
3: Plant response rating, Bedstraw (bedstraw; PREEMERGENCE, Rate 50 g/ha)
30: Plant response rating (0 to 100), Barley Igri (barley [4]; Rate 4 g/ha) | Plant response rating (0 to 100), Barley Igri (barley [4]; Rate 16 g/ha) | Plant response rating (0 to 100), Blackgrass (blackgrass; Rate 1 g/ha) | Plant response rating (0 to 100), Soybean (soybean [6]; Rate 1 g/ha) | Plant response rating (0 to 100), Umbrella sedge (umbrella sedge; Rate 16 g/ha, under POSTEMERGENCE head (flood test species))
50: Plant response rating Barley Igri (barley [4]; 62 g/ha, 0 to 100 scale) | Plant response rating (0 to 100), Blackgrass (blackgrass; Rate 16 g/ha) | Plant response rating (0 to 100), Ryegrass (ryegrass; Rate 16 g/ha) | Plant response rating (0 to 100), Soybean (soybean [6]; Rate 4 g/ha)
80: Plant response rating (0 to 100), Soybean (soybean [6]; Rate 16 g/ha)
2: Plant response rating, Barley (barley [1]; PREEMERGENCE, Rate 50 g/ha) | Plant response rating, Morningglory (morningglory; PREEMERGENCE, Rate 50 g/ha) | Plant response rating, Sorghum (sorghum; PREEMERGENCE, Rate 50 g/ha)
8: Plant response rating, Bedstraw (bedstraw; POSTEMERGENCE, Rate 10 g/ha) | Plant response rating, Cocklebur (cocklebur; POSTEMERGENCE, Rate 10 g/ha) | Plant response rating, Soybean (soybean [3]; POSTEMERGENCE, Rate 10 g/ha)
20: Plant response rating (0 to 100), Barley Igri (barley [4]; Rate 1 g/ha) | Plant response rating (0 to 100), Ryegrass (ryegrass; Rate 1 g/ha)
6: Plant response rating, Barley (barley [1]; POSTEMERGENCE, Rate 50 g/ha) | Plant response rating, Chickweed (chickweed [2]; PREEMERGENCE, Rate 50 g/ha) | Plant response rating, Sorghum (sorghum; POSTEMERGENCE, Rate 50 g/ha)
